Assay results taken from paper PMC7486940, “Pre-symptomatic Caspase-1 inhibitor delays cognitive decline in a mouse model of Alzheimer disease and aging” (Nature Communications, 2020).
“And” between values parts separate entries of the source, which are not always exact repeats. Equal values may be shown once. Read-outs that look alike come from different tables or passages of the source. Marks after values point to notes of the source that are not given here.

Assays:
[1] = VX-765 and VRT-043198 pharmacokinetics (LC-MS/MS) in plasma, whole brain and CSF after a single IP dose of VX-765
Experimental: Plasma, whole brain and CSF concentrations of VX-765 and its active metabolite, VRT-043198, were determined by LC-MS/MS at Paraza Pharma (Montreal, QC, Canada). Fourteen C57BL/6J female mice received a single IP dose of 50 mg · kg^−1 VX-765 and 2 mice per time point were euthanized at 0.25, 0.5, 1, 3, 6, 8 and 24 h post-injection. Mice were isoflurane anesthetized to collect CSF and perform a cardiac puncture followed by whole body perfusion with PBS. Plasma samples were extracted 1:1 in spiking solution and internal standard solution containing 0.1 μM glyburide in acetonitrile. Brain and CSF samples were extracted 1:1 in spiking solution and internal standard solution containing 0.2 μM labetalol in 50:50 methanol:acetonitrile. Samples were centrifuged at 4000 × g for 10 min at 4 °C, the plasma supernatant diluted 1:1 and the brain and CSF supernatant diluted 1:2 in H2O, and 5 μl was injected into a Quantis LC-MS/MS system for analysis.

[2] = cited from earlier work
[3] = system: Casp1; design: method as in PMID 30254377; details: in vitro Casp1; cited from earlier work
[4] = design: method as in PMID 30254377; details: 50 mg/kg dose of VX-765, carotid infusion, J20 mice; cited from earlier work
[5] = system: APP23 mice; design: method as in PMID 16095884; details: 2-month pre-symptomatic treatment, 3-week WO; cited from earlier work
[6] = system: APP/PS1 mouse model of AD; design: method as in Woodling et al., Brain 2016; details: three month treatment given one month before the appearance of deficits, ref Woodling et al., Brain 2016; cited from earlier work
[7] = system: APP/PS1; design: method as in PMID 29191754; details: 1-month pre-treatment, 3-week WO; cited from earlier work
[8] = CSF, 0.50 h after single IP 50 mg/kg VX-765
[9] = CSF, 1 h after single IP 50 mg/kg VX-765
[10] = CSF, 3 h after single IP 50 mg/kg VX-765, some blood contamination during CSF collection
[11] = CSF, 8 h after single IP 50 mg/kg VX-765, some blood contamination during CSF collection
[12] = plasma, 0.25 h after single IP 50 mg/kg VX-765
[13] = plasma, 0.50 h after single IP 50 mg/kg VX-765
[14] = plasma, 1 h after single IP 50 mg/kg VX-765
[15] = plasma, 3 h after single IP 50 mg/kg VX-765
[16] = plasma, 6 h after single IP 50 mg/kg VX-765
[17] = plasma, 8 h after single IP 50 mg/kg VX-765
[18] = plasma, single IP 50 mg/kg VX-765
[19] = whole brain, 0.25 h after single IP 50 mg/kg VX-765
[20] = whole brain, 0.50 h after single IP 50 mg/kg VX-765
[21] = whole brain, 1 h after single IP 50 mg/kg VX-765, NQ = not quantifiable, LLOQ 0.025 μM VX-765, 0.049 μM VRT-043198
[22] = whole brain, single IP 50 mg/kg VX-765

With `CC(C)(C)[C@H](NC(=O)c1ccc(N)c(Cl)c1)C(=O)N1CCC[C@H]1C(=O)N[C@H](C=O)CC(=O)O` [VRT-043198] the “CSF concentration, Mouse 2” value ([1]; CSF, 0.25 h after single IP 50 mg/kg VX-765) was 3.11 µM, the “CSF concentration, Mean” value ([1]; CSF, 0.25 h after single IP 50 mg/kg VX-765, n = 2) was 42.9 µM and the “CSF concentration, Mouse 1” value ([1]; CSF, 0.25 h after single IP 50 mg/kg VX-765, some blood contamination during CSF collection) was 82.6* μM. For the same molecule, the “CSF concentration, Mouse 1” value [1, 8] was 0.44 µM, the “CSF concentration, Mouse 2” value [1, 8] was 7.00 µM and the “CSF concentration, Mean” value ([1]; CSF, 0.50 h after single IP 50 mg/kg VX-765, n = 2) was 3.72 µM. For the same molecule, the “CSF concentration, Mouse 1” value [1, 9] was 0.43 µM, the “CSF concentration, Mouse 2” value [1, 9] was 0.58 µM and the “CSF concentration, Mean” value ([1]; CSF, 1 h after single IP 50 mg/kg VX-765, n = 2) was 0.50 µM. The “CSF concentration, Mean” value ([1]; CSF, 3 h after single IP 50 mg/kg VX-765, n = 2) was 0.28 µM, the “CSF concentration, Mouse 1” value [1, 10] was 0.42* μM and the “CSF concentration, Mouse 2” value [1, 10] was 0.15* μM. For the same molecule, the “CSF concentration, Mean” value ([1]; CSF, 6 h after single IP 50 mg/kg VX-765) was 0.21 µM, the “CSF concentration, Mouse 2” value ([1]; CSF, 6 h after single IP 50 mg/kg VX-765, some blood contamination during CSF collection) was 0.21* μM and the “CSF concentration, Mean” value ([1]; CSF, 8 h after single IP 50 mg/kg VX-765, n = 2) was 0.36 µM. The “CSF concentration, Mouse 1” value [1, 11] was 0.13* μM, the “CSF concentration, Mouse 2” value [1, 11] was 0.60* μM and the “MRTinf in CSF, Mean” value ([1]; CSF, single IP 50 mg/kg VX-765) was 48.6 min. The “MRTinf in CSF, Mouse 1” value ([1]; CSF, single IP 50 mg/kg VX-765) was 48.6 min, the “Tmax in CSF, Mean” value ([1]; CSF, single IP 50 mg/kg VX-765) was 22.8 min and the “Tmax in CSF, Mouse 1” value ([1]; CSF, single IP 50 mg/kg VX-765) was 15 min. The “Tmax in CSF, Mouse 2” value ([1]; CSF, single IP 50 mg/kg VX-765) was 30 min, the “CSF concentration relative to respective in vitro Casp1 IC50” value ([1]; CSF, within 0.25 h post-injection, single IP 50 mg/kg VX-765) was 4000 fold and the “brain concentration relative to respective in vitro Casp1 IC50” value ([1]; brain, within 0.25 h post-injection, single IP 50 mg/kg VX-765) was 170 fold. The “plasma concentration, Mouse 1” value [1, 12] was 201.8 µM, the “plasma concentration, Mouse 2” value [1, 12] was 180.4 µM and the “plasma concentration, Mean” value ([1]; plasma, 0.25 h after single IP 50 mg/kg VX-765, n = 2) was 191.1 µM. The “plasma concentration, Mouse 1” value [1, 13] was 338.1 µM, the “plasma concentration, Mouse 2” value [1, 13] was 104.1 µM and the “plasma concentration, Mean” value ([1]; plasma, 0.50 h after single IP 50 mg/kg VX-765, n = 2) was 221.1 µM. For the same molecule, the “plasma concentration, Mouse 1” value [1, 14] was 24.4 µM, the “plasma concentration, Mouse 2” value [1, 14] was 51.0 µM and the “plasma concentration, Mean” value ([1]; plasma, 1 h after single IP 50 mg/kg VX-765, n = 2) was 37.7 µM. For the same molecule, the “plasma concentration, Mouse 1” value [1, 15] was 1.16 µM, the “plasma concentration, Mouse 2” value [1, 15] was 0.78 µM and the “plasma concentration, Mean” value ([1]; plasma, 3 h after single IP 50 mg/kg VX-765, n = 2) was 0.97 µM. The “plasma concentration, Mouse 1” value [1, 16] was 0.46 µM, the “plasma concentration, Mouse 2” value [1, 16] was 0.30 µM and the “plasma concentration, Mean” value ([1]; plasma, 6 h after single IP 50 mg/kg VX-765, n = 2) was 0.38 µM. The “plasma concentration, Mouse 1” value [1, 17] was 0.35 µM, the “plasma concentration, Mouse 2” value [1, 17] was 0.24 µM and the “plasma concentration, Mean” value ([1]; plasma, 8 h after single IP 50 mg/kg VX-765, n = 2) was 0.30 µM. For the same molecule, the “MRTinf in plasma, Mouse 1” value [1, 18] was 40.2 min, the “MRTinf in plasma, Mouse 2” value [1, 18] was 46.8 min and the “Tmax in plasma, Mouse 1” value [1, 18] was 30 min. The “Tmax in plasma, Mouse 2” value [1, 18] was 15 min, the “plasma concentration relative to respective in vitro Casp1 IC50” value ([1]; plasma, within 0.25 h post-injection, single IP 50 mg/kg VX-765) was 20,000 fold and the Cmax ([1]; read-out: Cmax in CSF, Mean, CSF, single IP 50 mg/kg VX-765) was 44.8 µM. The Cmax ([1]; read-out: Cmax in CSF, Mouse 1, CSF, single IP 50 mg/kg VX-765) was 82.6 µM, the Cmax ([1]; read-out: Cmax in CSF, Mouse 2, CSF, single IP 50 mg/kg VX-765) was 7 µM and the Cmax ([1]; read-out: Cmax in brain, Mean, whole brain, single IP 50 mg/kg VX-765) was 1.7 µM. For the same molecule, the Cmax ([1]; read-out: Cmax in brain, Mouse 1, whole brain, single IP 50 mg/kg VX-765) was 2.54 µM, the Cmax ([1]; read-out: Cmax in brain, Mouse 2, whole brain, single IP 50 mg/kg VX-765) was 0.85 µM and the Cmax ([1]; read-out: Cmax in plasma, Mean, plasma, single IP 50 mg/kg VX-765) was 259 µM. The Cmax ([1]; read-out: Cmax in plasma, Mouse 1, plasma, single IP 50 mg/kg VX-765) was 338 µM, the Cmax ([1]; read-out: Cmax in plasma, Mouse 2, plasma, single IP 50 mg/kg VX-765) was 180 µM and the “brain concentration, Mouse 1” value [1, 19] was 2.54 µM. The “brain concentration, Mouse 2” value [1, 19] was 0.85 µM, the “brain concentration, Mean” value ([1]; whole brain, 0.25 h after single IP 50 mg/kg VX-765, n = 2) was 1.70 µM and the “brain concentration, Mouse 1” value [1, 20] was 0.59 µM. The “brain concentration, Mouse 2” value [1, 20] was 0.65 µM, the “brain concentration, Mean” value ([1]; whole brain, 0.50 h after single IP 50 mg/kg VX-765, n = 2) was 0.62 µM and the “brain concentration, Mean” value ([1]; whole brain, 1 h after single IP 50 mg/kg VX-765) was 0.24 µM. The “brain concentration, Mouse 1” value [1, 21] was 0.21 µM, the “brain concentration, Mouse 2” value [1, 21] was 0.27 µM and the “brain concentration, Mean” value ([1]; whole brain, 3 h after single IP 50 mg/kg VX-765) was 0.08 µM. For the same molecule, the “brain concentration, Mouse 1” value ([1]; whole brain, 3 h after single IP 50 mg/kg VX-765, NQ = not quantifiable, LLOQ 0.025 μM VX-765, 0.049 μM VRT-043198) was 0.08 µM, the “Half-life (t1/2) in brain, Mouse 1” value [1, 22] was 59.4 min and the “MRTinf in brain, Mean” value [1, 22] was 52.2 min. The “MRTinf in brain, Mouse 1” value [1, 22] was 58.8 min, the “MRTinf in brain, Mouse 2” value [1, 22] was 45.6 min and the “Tmax in brain, Mean” value [1, 22] was 15 min. For the same molecule, the “Tmax in brain, Mouse 1” value [1, 22] was 15 min, the “Tmax in brain, Mouse 2” value [1, 22] was 15 min and the “Half-life (t1/2) in brain, Mean” value ([1]; whole brain, single IP 50 mg/kg VX-765, 50 mg/kg) was 60 min and 59.4 min. The “in vitro half-life (t1/2)” value [2] was about 180 min, the IC50 [3] was 9.91 nM and the “concentration in the J20 brain” value [4] was 2 to 5 µM.
In the case of `COc1ccc2c3c1O[C@H]1C[C@@H](O)C=C[C@@]31CCN(C)C2` [galantamine], the “Morris water maze acquisition and spatial memory” value [5] is listed as “improved acquisition and spatial memory in the Morris water maze”.
For `CC(C)Cc1ccc(C(C)C(=O)O)cc1` (stereo not shown) [ibuprofen], the “cognitive impairment on NOR” value [6] is given as “prevention of cognitive impairment”.
In the case of `CC12CC3CC(C)(C1)CC(N)(C3)C2` [memantine], the “Morris water maze acquisition and spatial memory” value [5] is listed as “improved acquisition and spatial memory in the Morris water maze”.
In the case of `CN1CCN(CCOc2cc(OC3CCOCC3)c3c(Nc4c(Cl)ccc5c4OCO5)ncnc3c2)CC1` [saracatinib], the NOR performance [7] is given as “continued improved performance in NOR”.
